Assay results published in BindingDB's records for doi:10.1016/s1074-5521(97)90073-9 (University of California Berkeley, 1997).

Biological target: Cathepsin D (Homo sapiens, UniProt P07339)
Assay: High Through-Put Fluorescence Assay
Details: pH 3.7
Description: A fluorometric high through-put assay for inhibitor towards human liver cathepsin D from Calbiochem.

Sequence of Cathepsin D (P07339 65-162 limits assumed): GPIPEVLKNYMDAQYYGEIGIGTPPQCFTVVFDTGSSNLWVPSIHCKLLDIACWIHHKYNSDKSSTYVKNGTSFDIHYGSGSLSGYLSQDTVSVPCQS
Sequence of Cathepsin D (P07339 169-412 limits assumed): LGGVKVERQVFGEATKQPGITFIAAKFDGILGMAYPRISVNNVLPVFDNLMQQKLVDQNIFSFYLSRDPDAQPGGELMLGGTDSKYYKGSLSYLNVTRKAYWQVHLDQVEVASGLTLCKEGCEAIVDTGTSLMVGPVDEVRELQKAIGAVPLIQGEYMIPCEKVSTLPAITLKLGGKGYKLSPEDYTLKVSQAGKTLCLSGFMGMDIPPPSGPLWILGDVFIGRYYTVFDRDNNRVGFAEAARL

Q: Which Ki does the source give for `O=C(COc1cc(Cl)c(Cl)cc1Cl)N[C@@H](c1ccccc1)[C@H](O)CN(CCc1ccc2c(c1)OCO2)C(=O)CCN1C(=O)c2ccccc2C1=O` [(R)-EHD] here?
A: > 5 µM

Q: For `O=C(COc1ccc(Cl)c(Cl)c1)N[C@@H](c1ccccc1)[C@H](O)CN(CCc1ccc2c(c1)OCO2)C(=O)CCN1C(=O)c2ccccc2C1=O` [(R)-EHO], which IC50 is on record?
A: > 5 µM

Q: How did the Ki turn out when `O=C(CCn1c(=O)oc2ccccc21)N[C@@H](c1ccccc1)C(O)CN(CCc1ccc2c(c1)OCO2)C(=O)CCc1ccc(Cl)c(Cl)c1` (stereo partly specified) [EFA] was run?
A: 0.171 µM

Q: For `O=C(CCn1c(=O)oc2ccccc21)N[C@@H](c1ccccc1)C(O)CN(CCc1ccc2c(c1)OCO2)C(=O)CCN1C(=O)c2ccccc2C1=O` (stereo partly specified) [EHA], which Ki is on record?
A: 0.131 µM

Q: For `O=C(COc1cc(Cl)c(Cl)cc1Cl)N[C@@H](c1ccccc1)C(O)CN(CCc1ccc2c(c1)OCO2)C(=O)CCN1C(=O)c2ccccc2C1=O` (stereo partly specified) [EHD], which Ki is on record?
A: 0.073 µM

Q: How did the Ki turn out when `COc1ccc(C(=O)N[C@@H](c2ccccc2)C(O)CN(CCc2ccc3c(c2)OCO3)C(=O)CCN2C(=O)c3ccccc3C2=O)c(Cl)c1OC` (stereo partly specified) [EHJ] was run?
A: 0.111 µM

Q: `O=C(COc1ccc(Cl)cc1Cl)N[C@@H](c1ccccc1)C(O)CN(CCc1ccc2c(c1)OCO2)C(=O)CCN1C(=O)c2ccccc2C1=O` (stereo partly specified) [EHM] was tested. Which IC50 did it give?
A: 0.014 µM

Q: And the Ki?
A: 0.009 µM

Q: Which results are given for `O=C(COc1ccc(Cl)c(Cl)c1)N[C@@H](c1ccccc1)C(O)CN(CCc1ccc2c(c1)OCO2)C(=O)CCN1C(=O)c2ccccc2C1=O` (stereo partly specified) [EHO]?
A: IC50: 0.019 µM; Ki: 0.015 µM

Q: How did the IC50 turn out when `O=C(COc1cccc(Cl)c1)N[C@@H](c1ccccc1)C(O)CN(CCc1ccc2c(c1)OCO2)C(=O)CCN1C(=O)c2ccccc2C1=O` (stereo partly specified) [EHR] was run?
A: 0.02 µM

Q: And the Ki?
A: 0.015 µM

Q: With `COc1cc(Br)c(C(=O)N[C@@H](c2ccccc2)C(O)CN(CCc2ccc3c(c2)OCO3)C(=O)CCN2C(=O)c3ccccc3C2=O)cc1OC` (stereo partly specified) [EHS] as the molecule, how does the IC50 read?
A: 0.064 µM

Q: And the Ki?
A: 0.059 µM

Q: How did the Ki turn out when `COc1cccc(CCN(CC(O)[C@@H](NC(=O)Cn2c(O)csc2=S)c2ccccc2)C(=O)NC2CCCCC2)c1` (stereo partly specified) [FBB] was run?
A: 0.356 µM

Q: `CCCCCCC(=O)N(CCc1cccc(OC)c1)CC(O)[C@@H](NC(=O)Cn1c(O)csc1=S)c1ccccc1` (stereo partly specified) [FDB] was tested. Which Ki did it give?
A: 0.595 µM

Q: With `O=C(CCn1c(=O)oc2ccccc21)N[C@@H](c1ccccc1)C(O)CN(CCc1ccc(Cl)cc1Cl)C(=O)CCN1C(=O)c2ccccc2C1=O` (stereo partly specified) [FHA] as the molecule, how does the Ki read?
A: 0.231 µM

Q: For `O=C(COc1ccc(Cl)c(Cl)c1)N[C@@H](c1ccccc1)C(O)CN(CCc1ccc(Cl)cc1Cl)C(=O)CCN1C(=O)c2ccccc2C1=O` (stereo partly specified) [FHO], which IC50 is on record?
A: 0.018 µM

Q: And the Ki?
A: 0.014 µM

Q: Which results are given for `Cc1ccc(CCN(CC(O)[C@@H](NC(=O)COc2cc(Cl)c(Cl)cc2Cl)c2ccccc2)C(=O)CCN2C(=O)c3ccccc3C2=O)cc1` (stereo partly specified) [UHD]?
A: IC50: 0.229 µM; Ki: 0.224 µM
